# Like-named read-outs stand apart in the source and are kept apart here.
# Experiments:
# [1] = in vivo; cited from earlier work
# [2] = tested on: Trichophyton rubrum (ATCC 28188); assay: Time-Kill test (Example 9); format: cell-based
# Protocol: A panel of “challenge microorganisms,” including select bacteria, yeast, and fungi was used to assess the disinfecting properties of test compounds, e.g., AMC (DPT Laboratories). […] The procedure was based on the ASTM procedure entitled, “Standard Test Method for the Assessment of Microbial Activity of Test Materials Using Time-Kill Procedure.”
# A single lot of test material was prepared at various concentrations, along with multiple compounds prepared in various concentrations and combinations. These test materials were tested in duplicate against various bacteria, yeast and fungi. To minimize potential buffer interference and to minimize reduction of antimicrobial activity, the volume of the inoculum added to the test material was maintained at, or below, 1% of the total volume of the test. Samples were removed at various contact times. Serial dilutions were performed, and duplicate aliquots were plated. The plates were then incubated, and the average colony forming units (CFU) recovered per milliliter were determined for each contact time. The contact times for the test compounds with S. aureus, E. coli, P. aeruginosa, and C. albicans were 30 sec, 1 min, and 5 min. The contact times for the test compounds with B. subtilis were 1 and 10 min, 1 h, 2 h, 3 h, and 24 h. The contact times for the test compounds with T. rubrum were 30 sec, 1 min and 10 min. The contact temperature was ambient room temperature (20-21° C.).
# The fungus, T. rubrum, was inoculated onto Emmon's agar (EA) and incubated at 25-30° C. for 10-15 days. The mycelial mats from mature cultures were removed from the surface of at least 5 plates and macerated with sterile saline (SS) in a sterile glass tissue grinder. The suspension was filtered through sterile glass wool to remove the hyphae.
# The density of the conidial suspension was determined by serially diluting the prepared culture in BPDW. Aliquots from selected dilutions were plated on duplicate EA plates. The plates were incubated for 3-5 days at 25-30° C. and then each plate was examined for enumeration.
# The suspension was stored at 2-10° C. for 4 weeks before use. On the day of testing, the suspension was adjusted to yield approximately 5.0×10^8 CFU by dilution with BPDW.
# Compliant with the ASTM procedure cited above, the challenge microorganism was added to the test material by dispensing 99 ml of the test material into two sterile flasks, each containing a stir bar. The reaction flasks were allowed to equilibrate to the test temperature for at least 10 minutes. The flasks were placed in water baths on stir plates and maintained at the test temperature with stirring. A 1 ml aliquot of the prepared inoculum of the challenge microorganism was added to each flask to begin the contact period. At each contact time, 1 ml aliquot samples were removed and added to tubes containing 9 ml PBDW+. Serial 10-fold dilutions of each sample were then prepared in PBDW dilution blanks. Duplicate aliquots from selected dilutions were plated using the appropriate agar.
# Upon completion of all contact periods, all plates were inverted and incubated for the appropriate time and temperature as follows: bacteria and yeast were incubated over 2 nights at 37° C.±2° C., and the fungus was incubated for at least 5 nights at 25-30° C. Following incubation, all plates were removed, the colonies were counted and the CFU recovered per ml at each contact time were calculated.
# [3] = tested on: S. epidermidis ATCC 12228; assay: NCCLS broth microdilution MIC and MBC (Example 10); format: cell-based, Staphylococcus epidermidis
# Protocol: (§2) Strains of E. coli (ATCC 11229), D. aeruginosa (ATCC 15442), S. aureus (ATCC 25923), S. epidermidis (ATCC 12228), S. pyogenes (ATCC 19615), C. albicans (ATCC 10231), and T. rubrum (ATCC 28188) were used as “challenge microorganisms” in this study. Strains were removed from frozen stock and subcultured twice on blood agar to ensure that the strains had optimal growth and metabolic status before testing.
# (§3) Hibiclens (industry comparator) and ciprofloxacin were added to the bacterial panel. Amphotericin B, fluconazole, and Hibiclens were added as comparative agents in the fungal panels.
# (§4) For testing purposes, AMC, AMC components, and Hibiclens were diluted to 50% of the working solution to cover the proposed AMC use dilution of 20%.
# (§5) Microtiter panels were created on the day of MIC testing. A 50 μl aliquot of Mueller-Hinton broth (for bacterial strains) or RPMI 1640 (for fungal strains) was delivered to each well, except those in column one of the microtiter panel. The working solution of AMC and each of its components, and comparative agents were delivered to the designated wells in column one. AMC, components, and comparators were serially diluted across the panel. A 50 μl aliquot of bacterial or fungal suspension was then added to each well on the microtiter panel, using a new pipette tip for each aliquot. Panels were incubated at 35° C. for 16-20 h for the E. coli, P. aeruginosa, and S. aureus strains, 20-24 h for the S. pyogenes strain, and 48 h for the C. albicans strain.
# (§6) The 10 μl samples were plated on to blood agar and incubated at 35° C. for 24 h (E. coli and P. aeruginosa) or 48 h (S. aureus, S. epidermidis, and S. pyogenes). After incubation, colony counts for each panel well plated were recorded.
# (§7) The MIC % is expressed as g/100 ml or ml/100 ml. […] The MBC % is expressed as g/100 ml or ml/100 ml.
# [4] = tested on: S. aureus ATCC 25923; assay: NCCLS broth microdilution MIC and MBC (Example 10); format: cell-based, Staphylococcus aureus; conditions: Example 10
# Protocol: as §2, §3, §4, §5, §6, §7
# [5] = tested on: S. pyogenes ATCC 19615; assay: NCCLS broth microdilution MIC and MBC (Example 10); format: cell-based, Streptococcus pyogenes; conditions: Example 10; % as g/100 ml or ml/100 ml
# Protocol: as §2, §3, §4, §5, §6, §7
# [6] = tested on: E. coli ATCC 11229; assay: NCCLS broth microdilution MIC and MBC (Example 10); format: cell-based, Escherichia coli; conditions: % as g/100 ml or ml/100 ml
# Protocol: as §2, §3, §4, §5, §6, §7
# [7] = tested on: P. aeruginosa ATCC 15442; assay: NCCLS broth microdilution MIC and MBC (Example 10); format: cell-based, Pseudomonas aeruginosa; conditions: Example 10; % as g/100 ml or ml/100 ml
# Protocol: as §2, §3, §4, §5, §6, §7
# [8] = tested on: C. albicans ATCC 10231; assay: NCCLS broth microdilution MIC and MFC (Example 10); format: cell-based, Candida albicans
# Protocol: as §2
# (§8) Amphotericin B, fluconazole, and Hibiclens were added as comparative agents in the fungal panels.
# as §4
# (§9) Microtiter panels were created on the day of MIC testing. A 50 μl aliquot of Mueller-Hinton broth (for bacterial strains) or RPMI 1640 (for fungal strains) was delivered to each well, except those in column one of the microtiter panel. The working solution of AMC and each of its components, and comparative agents were delivered to the designated wells in column one. AMC, components, and comparators were serially diluted across the panel. A 50 μl aliquot of bacterial or fungal suspension was then added to each well on the microtiter panel, using a new pipette tip for each aliquot. Panels were incubated at 35° C. for 16-20 h for the E. coli, P. aeruginosa, and S. aureus strains, 20-24 h for the S. pyogenes strain, and 48 h for the C. albicans strain. T. rubrum panels were incubated for 3 to 4 days before MICs were read. […] Fungal MICs (%) were read using an 80% reduction in the growth endpoint relative to the turbidity of the growth control for AMC, its components, and fluconazole. For amphotericin B, the endpoint was read as the complete inhibition of growth.
# (§10) MFCs were determined in a similar manner.
# (§11) The endpoint for amphotericin B was read as complete inhibition of growth. The MIC % is expressed as g/100 ml or ml/100 ml. […] The MFC % is expressed as g/100 ml or ml/100 ml.
# [9] = tested on: T. rubrum ATCC 28188; assay: NCCLS broth microdilution MIC and MFC (Example 10); format: cell-based, Trichophyton rubrum; conditions: Example 10
# Protocol: as §2, §8, §4, §9, §10, §11
# [10] = tested on: C. albicans ATCC 10231; assay: NCCLS broth microdilution MIC and MFC (Example 11); format: cell-based, Candida albicans
# Protocol: (§12) Strains of C. albicans (ATCC 10231) and T. rubrum (ATCC 28188) were tested in this study. Strains were removed from frozen stock and subcultured twice on blood agar to ensure that the strains had optimal growth and metabolic status before testing. Strains were tested by NCCLS broth microdilution (M27-A2, 2002) and challenged with AMC solution and its individual components […] ), and isopropanol. Amphotericin B, fluconazole, terbinafine, and Hibiclens were added as comparator compounds. […] Microtiter panels were created on the day of MIC testing. A 50 μl aliquot of RPMI 1640 was delivered to each well except those in column one of the microtiter panel. The working solution of AMC and each of its components, and comparative agents were delivered to the designated wells in column one; AMC, components, and comparators were serially diluted across the panel. A 50 μl aliquot of fungal suspension was then added to each well on the microtiter panel, using a new pipette tip for each aliquot. […] For amphotericin B, the endpoint was read as the complete inhibition of growth. […] MFCs were performed to determine the concentration at which ≧99% of the starting fungal inoculum was killed. […] After incubation, colony counts for each panel well plated were recorded. […] The endpoint for amphotericin B was read as complete inhibition of growth.
# [11] = tested on: T. rubrum ATCC 28188; assay: NCCLS broth microdilution MIC and MFC (Example 11); format: cell-based, Trichophyton rubrum; conditions: Example 11
# Protocol: as §12
# [12] = component at 100%; cited from earlier work
# [13] = tested on: Hepatitis B virus; conditions: virus in dried human plasma exposed 10 min at 20 deg C. to 70% isopropanol; 9 months observation; cited from earlier work
# [14] = component at 100%; cited from earlier work; remark: listed apart in the source
# [15] = component at 100%; cited from earlier work; remark: listed apart in the source
# [16] = Acute oral toxicity, rat
# [17] = Acute dermal toxicity, rabbit
# [18] = Acute inhalation toxicity, rat
# [19] = component at 100%; cited from earlier work; remark: listed apart in the source
# [20] = tested on: E. coli (strain 1257); assay: Time-kill test, initial studies (death time); format: cell-based, Escherichia coli
# Text: (§1) Time-kill tests were used to measure the disinfecting property of test compounds, e.g., microbiocidal or sporicidal compositions, using select bacterial challenge microorganisms such as the vegetative forms of, e.g., E. coli (strain 1257) S. aureus (strain 906), and Bacillus cereus (strain 96).
# [21] = tested on: S. aureus (strain 906); assay: Time-kill test, initial studies (death time); format: cell-based, Staphylococcus aureus
# Text: as §1
# [22] = tested on: Bacillus cereus (strain 96); assay: Time-kill test, initial studies (death time, sporicidal activity); format: cell-based; conditions: Conc. 5.0 %
# [23] = MBC within one doubling dilution of the MIC
# [24] = 80% reduction in growth endpoint
# [25] = MFC within 1 doubling dilution of the MIC
# [26] = Estimated for AMC contained concentrations
compound,measurement,setting,value
C=C1/C(=C/C=C2\CCC[C@]3(C)[C@@H]([C@@H](C)CCC(=O)N4CCCCC4)CC[C@@H]23)C[C@@H](O)C[C@@H]1O [Ecalcidene],"dose with immunological effects, times lower than doses causing toxicity associated with hypercalcemia",[1],10-100 times
CC(C)O [Isopropanol],Relative Kill Potency,[2],0.64
same,reduction of T. rubrum count,"[2]; Study 509-101, in 30 sec",not effective
same,30-Second Log Reduction from Initial T. rubrum CFU Values,"[2]; Table 25, first value column",0.8 Logs
same,"MCB, %",[3]; % as g/100 ml or ml/100 ml,24.5%
same,"MIC, %",[3]; % as g/100 ml or ml/100 ml,12.3%
same,bactericidal activity,[3]; [23],bactericidal activity
same,"MBC, %",[4]; % as g/100 ml or ml/100 ml,24.6%
same,"MIC, %",[4]; % as g/100 ml or ml/100 ml,12.3%
same,bactericidal activity,[4]; [23],bactericidal activity
same,"MBC, %",[5],12.3%
same,"MIC, %",[5],12.3%
same,"MIC, %",[6],6.1%
same,"MBC, %",[7],12.3%
same,"MIC, %",[7],3.1%
same,"MIC, %",[8]; [24],1.5%
same,"MFC, %",[8]; 99.9% inhibition of growth,1.5%
same,fungicidal activity,[8]; [25],Fungal activity
same,"MIC, %",[9]; [24],0.2%
same,"MFC, %",[9]; 99.9% inhibition of growth,0.4%
same,fungicidal activity,[9]; [25],Fungicidal activity was observed
same,"MFC, %",[10],1.5%
same,"MIC, %",[10]; [24],0.8%
same,fungicidal activity,[10]; [25],Fungicidal activity
same,"MFC, %",[11],3.1%
same,"MIC, %",[11]; [24],0.2%
same,fungicidal activity,[11]; [25],did not demonstrate fungicidal activity
same,Rat Oral LD50,[12],">5,000 mg/Kg"
same,infection after intravenous inoculation of treated viral material,[13],did not show signs of infection
same,Rabbit Dermal LD50,[14],"12,800 mg/Kg"
same,Rat Inhalation LC50,[15],72.6 mg/L
same,LD50,"[16]; rat, in vivo, po",> 5000 mg/kg
same,LD50,"[17]; rabbit, in vivo, topical or ocular",25600 mg/kg
same,LC50,"[18]; rat, in vivo, inhaled",145 mg/L
"[O-2].[Zn+2] [Zn oxide (100%), Zn oxide]",Rat Oral LD50 (*Mouse data),[19],"7,950 mg/Kg"
same,Rabbit Dermal LD50,[14],">2,000 mg/Kg"
same,Rat Inhalation LC50,[15],>0.005 mg/L
same,Rat Oral LD50,[16]; [26],">>100,000 mg/Kg"
same,Rabbit Dermal LD50,[17]; [26],">>100,000 mg/Kg"
same,Rat Inhalation LC50,[18]; [26],>4.2 mg/L
Monoglycinatecopper chloride complex,Death time of test-microorganisms (min) E. coli,[20]; Conc. 0.1 %,>30 min
same,Death time of test-microorganisms (min) E. coli,[20]; Conc. 0.2 %,30 min
same,Death time of test-microorganisms (min) E. coli,[20]; Conc. 0.5 %,15 min
same,Death time of test-microorganisms (min) S. aureus,[21]; Conc. 0.1 %,>30 min
same,Death time of test-microorganisms (min) S. aureus,[21]; Conc. 0.2 %,>30 min
same,Death time of test-microorganisms (min) S. aureus,[21]; Conc. 0.5 %,>30 min
same,Death time of test-microorganisms (min) S. aureus,[21]; Conc. 5.0 %,>30 min
same,Death time of test-microorganisms (min) B. cereus,[22],>360 min

# From US20080057136A1, “Disinfecting Composition and Methods of Making and Using Same” (priority 2003, published 2008)
